Assay results published in EP3419609B1, “TREATMENT OF ALKAPTONURIA AND TYROSINEMIA TYPE 1” (Università degli Studi di Siena, priority 2016, dated 2017).
Like-named read-outs stand apart in the source and are kept apart here.

Experiments:
human fibroblasts (HFb) = experiment: Tyrosine dosage: intracellular tyrosine in HFb by LC-MS-MS; assay type: cell-based; settings: for slope of dose-response curve of intracellular tyrosine: tyrosine ng in 9×10^4 cells versus concentration, Figure 3A
Procedure: Intracellular tyrosine was calculated in HFb (9×10^4 cells/well) treated for 72 h with the compounds under assessment at various concentrations (10^-8, 10^-7, 10^-6 and 10^-5 M); controls were performed using the carrier at the concentration corresponding to the highest dose of the compound under assessment. At the end of treatment, the cells were recovered by scraping in the presence of norvaline (10^-3 M, used as internal standard, Sigma-Aldrich cod. N7627) and cold methanol (40 µL, Sigma-Aldrich cod. 34860), and subsequently lysed by cycles of freezing/thawing in a bath of dry ice/nitrogen. The lysate was centrifuged (6000g for 5 min) and the supernatant was then recovered, evaporated and re-suspended with 100 µL of 0.05% formic acid. Each sample was analysed by LC-MS-MS. In particular, the analysis was performed with a chromatographic instrument manufactured by Varian (Varian Inc.) run by the software Varian MS Workstation System Control Vers. […] Subsequently, the concentration of each compound was correlated with the amount of intracellular tyrosine contained in 9×10^4 cells and the resulting dose-response curve was obtained using the Origin® - Data Analysis and Graphing software by means of a linear type interpolating curve.
(§1) LD50 was evaluated in vitro using the MTT cell viability assay for the first time on human cells, in particular on primary human fibroblasts (HFb). […] Intracellular tyrosine was measured in HFb by LC-MS-MS analysis.

[1] = alkaptonuria patients, over the course of 3 years; cited from earlier work
[2] = tested on: primary human fibroblasts (HFb); experiment: in vitro; assay type: cell-based
Procedure: (§2) 12×10^4 primary human fibroblasts (ATCC, cat PCS-201-012) were treated with compounds at various concentrations (10^-7 M, 10^-6 M, 10^-5 M, 10^-4 M, 10^-3 M) for 24 and 144 h. HFb were cultured as described in [21]. Cellular viability was quantified by the MTT assay (Sigma-Aldrich cod. M5655) as described in [22]. Controls were performed treating the cells with vehicle (DMSO) alone. Calculation of LD50 was performed by means of the Origin® - Data Analysis and Graphing software using a sigmoid type interpolating curve.
as §1

4-HPPD = biological target: T1, 4-HPPD (Rattus norvegicus, UniProt P32755); experiment: Determination of 4-HPPD activity by oxygen consumption (SDR SensorDish Reader) in rat liver cytosol; assay type: biochemical, male Wistar rat
T1 construct: from tissue; host or cells: liver cytosol of a male Wistar rat
Procedure: 4-HPPD activity was evaluated in the liver cytosol of a male Wistar rat by monitoring oxygen consumption through the use of the SDR SensorDish® Reader (Presens, Precision Sensing GmbH, Regensburg, Germany). Briefly, a special test tube with an oxygen sensor placed on the bottom was filled with 0.2 M sodium phosphate buffer with pH 7.4, 1.7 mM ascorbic acid (used as a cofactor) and 10.92 mg of rat enzyme preparation (4-HPPD source). The mixture was equilibrated at 37°C for 5 min. and the reaction was started by the addition of substrate ([…], Sigma-Aldrich cod. SAE0003). […] The percentage of inhibition of enzymatic activity was calculated as the ratio of the slopes (decrease of the concentration of O2 (µmol/L) per min.) of the samples containing the inhibitor versus the untreated controls corrected with the negative control values. The IC50 values were calculated by means of regression analysis in the range of tested concentrations by means of the Origin® - Data Analysis and Graphing software using a sigmoid type interpolating curve and plotting on the x-axis the concentrations of the compounds and on the y-axis oxygen consumption values expressed as a percentage of 4-HPPD inhibition, the reduction of oxygen being correlated with inhibition of the enzyme.
4-HPPD inhibition was determined in the cytosolic extract of rat liver (source of the enzyme), by evaluation of enzymatic consumption of oxygen using the SDR SensorDish ® Reader, and was expressed as an IC50 value.

in vitro = assay type: cell-based; settings: after 144 h of treatment, concentration 1 mM; read-out: viability of HFb
Procedure: as §2, §1

[3] = rat liver cytosol, oxygen consumption, read-out: IC50
[4] = rat liver cytosol, oxygen consumption, read-out: IC50 (4-HPPD inhibitory activity)
[5] = rat liver cytosol, oxygen consumption

T1 sequence (P32755 whole entry): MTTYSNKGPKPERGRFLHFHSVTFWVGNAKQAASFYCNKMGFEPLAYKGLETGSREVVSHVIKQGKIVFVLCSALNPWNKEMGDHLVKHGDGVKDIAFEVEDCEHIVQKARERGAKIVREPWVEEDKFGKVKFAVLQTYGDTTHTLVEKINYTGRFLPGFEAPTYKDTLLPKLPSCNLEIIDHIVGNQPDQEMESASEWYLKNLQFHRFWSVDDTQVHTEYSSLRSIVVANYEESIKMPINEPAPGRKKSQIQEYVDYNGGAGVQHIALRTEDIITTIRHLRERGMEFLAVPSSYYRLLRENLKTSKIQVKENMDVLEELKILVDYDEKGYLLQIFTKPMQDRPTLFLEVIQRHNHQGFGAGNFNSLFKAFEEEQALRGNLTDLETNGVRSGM

O=C1CCCC(=O)C1C(=O)c1ccc(C(F)(F)F)cc1[N+](=O)[O-] [Compound 1, 2-(2-nitro-4-(trifluoromethyl)benzoyl)cyclohexane-1,3-dione, reference compound]
intracellular tyrosine increased compared to untreated HFb (human fibroblasts (HFb); 72 h, concentration 10^-5 M): ~32% | intracellular tyrosine increased compared to untreated HFb (human fibroblasts (HFb); 72 h, concentration 10^-6 M): about 21% | slope of dose-response curve of intracellular tyrosine (human fibroblasts (HFb); 72 h): 5.47 | reduction of HGA in urine and plasma [1]: 95% | LD50 24 hours ([2]; human, 24 h): >1 mM [c] | LD50 at 24 h ([2]; human, 24 h): > 10^-3 M | LD50 144 hours ([2]; human, 144 h): ~1 mM | LD50 at 144 h ([2]; human, 144 h): 10^-3 M

CS(=O)(=O)c1ccc(C(=O)C2C(=O)C(O)CC(O)C2=O)c(Cl)c1COCC(F)(F)F (centres unmarked) [Compound 2, 2-[2-Chloro-4-methylsulfonyl-3-(2,2,2-trifluoroetoxyimethyl)benzoyl]-4,6-dihydroxy-cyclohexane-1,3-dione]
IC50 (4-HPPD; [3]): 0.227 ± 0.009 µM | LD50 24 hours ([2]; human, 24 h): 0.48 ± 0.04 mM | LD50 144 hours ([2]; human, 144 h): 0.48 ± 0.03 mM

CS(=O)(=O)c1ccc(C(=O)C2C(=O)CCCC2=O)c(Cl)c1COCC(F)(F)F [Compound 3, 2-[2-Chloro-4-methylsulfonyl-3-(2,2,2-trifluoroetoxymethyl)benzoyl]cyclohexane-1,3-dione]
slope of dose-response curve of intracellular tyrosine (human fibroblasts (HFb); 72 h): 1.89 | IC50 (4-HPPD; [3]): 0.152 ± 0.006 µM | IC50 (4-HPPD; [4]): 0.152 µM | LD50 24 hours ([2]; HFb, MTT, 24 hours treatment): >1 mM [c] | LD50 144 hours ([2]; HFb, MTT, 144 hours treatment): >1 mM [c] | LD50 ([2]; HFb, treatment time not given): greater than 10^-3 M

CS(=O)(=O)c1ccc(C(=O)C2C(=O)CCCC2=O)c([N+](=O)[O-])c1 [Compound 4, 2-(4-Methylsulfonyl-2-nitrobenzoyl)-cyclohexane-1,3-dione]
tyrosine level lower than in the control (human fibroblasts (HFb); 72 h, highest inhibitor concentration, p<0.01): about 14% | intracellular tyrosine levels higher than in the control group (human fibroblasts (HFb); 72 h, lowest inhibitor concentration analysed, p<0.01): about 17% | IC50 (4-HPPD; [3]): 0.0367 ± 0.0097 µM | IC50 (4-HPPD; [4]): 0.0367 µM | LD50 24 hours ([2]; HFb, MTT, 24 hours treatment): 1.1 ± 0.1 mM | LD50 144 hours ([2]; HFb, MTT, 144 hours treatment): >1 mM [c]

CS(=O)(=O)c1cc(C(F)(F)F)ccc1C(=O)c1cnoc1C1CC1 [Compound 5]
IC50 (4-HPPD): 0.399 ± 0.019 µM | LD50 24 hours ([2]; HFb, MTT, 24 hours treatment): >1 mM [c] | LD50 144 hours ([2]; HFb, MTT, 144 hours treatment): 0.11 ± 0.07 mM

CC1(C)CC(=O)C(C(=O)c2ccc([N+](=O)[O-])cc2Cl)C(=O)C1 [Compound 6, 2-(2-chloro-4-nitro-benzoyl)-5,5-dimethyl-cyclohexane-1,3-dione]
intracellular tyrosine accumulation lower than that found for compound 1 (human fibroblasts (HFb); highest concentration tested, treatment for three days, p<0.01): about 7% | residual activity of the enzyme (4-HPPD; rat liver cytosol 4-HPPD): ~30% | IC50 (4-HPPD; [3]): 0.0364 ± 0.0093 µM | IC50 (4-HPPD; rat liver cytosol, read-out: IC50): ~0.0364 µM | LD50 24 hours ([2]; human, 24 h): >1 mM [c] | LD50 144 hours ([2]; human, 144 h): >1 mM [c] | viability at 144 h, 1 mM (in vitro): ~75%

COC(=O)C1C(=O)C(C(=O)c2ccc([N+](=O)[O-])cc2)C(=O)CC1(C)C (centres unmarked) [Compound 7, 2,2-Dimethyl-5-(4-nitrobenzoyl)-4,6-dioxycyclohexane methyl carboxylate]
IC50 (4-HPPD; [5]): no inhibition | LD50 24 hours ([2]; human, 24 h): 0.63 ± 0.12 mM | LD50 144 hours ([2]; human, 144 h): >1 mM [c]

CC1(C)CC(=O)C(C(=O)c2ccccc2)C(=O)C1Cl (centres unmarked) [Compound 8, 2-Benzoyl-4-chloro-5,5-dimethyl-cyclohexane-1,3-dione]
IC50 (4-HPPD; [5]): no inhibition | LD50 24 hours ([2]; human, 24 h): >1 mM [c] | LD50 144 hours ([2]; human, 144 h): >1 mM [c]

CC1(C)CC(=O)C(C(=O)c2ccccc2)C(=O)C1 [Compound 9, 2-Benzoyl-5,5-dimethyl-cyclohexane-1,3-dione]
IC50 (4-HPPD; [5]): no inhibition | LD50 24 hours ([2]; human, 24 h): >1 mM [c] | LD50 144 hours ([2]; human, 144 h): >1 mM [c]

Cc1cc(C2C(=O)C(C(=O)c3ccc(Cl)cc3)C(=O)CC2(C)C)on1 (centres unmarked) [Compound 10, 2-(4-chlorobenzoyl)-5,5-dimethyl-4-(3-methyl-isoxazol-5-yl)-cyclohexane-1,3-dione]
IC50 (4-HPPD; [3]): 59.9 ± 1.8 µM | LD50 24 hours ([2]; human, 24 h): >1 mM [c] | LD50 144 hours ([2]; human, 144 h): 0.82 ± 0.20 mM

CC1(C)C(Cl)C(=O)C(C(=O)c2ccccc2)C(=O)C1Cl (centres unmarked) [Compound 11, 2-Benzoyl-4,6-dichloro-5,5-dimethyl-cyclohexane-1,3-dione]
IC50 (4-HPPD; [3]): 0.192 ± 0.002 µM | LD50 24 hours ([2]; human, 24 h): >1 mM [c] | LD50 144 hours ([2]; human, 144 h): 0.29 ± 0.08 mM

O=C1CCC(c2ccccc2)C(=O)C1C(=O)c1ccc(Cl)cc1Cl (centres unmarked) [Compound 13, 2-(2,4-dichlorobenzoyl) -4-phenyl-cyclohexane-1,3-dione]
IC50 (4-HPPD; [3]): 0.279 ± 0.006 µM | LD50 24 hours ([2]; human, 24 h): >1 mM [c] | LD50 144 hours ([2]; human, 144 h): 0.36 ± 0.15 mM

CC1(C)CC(=O)C(C(=O)c2ccc(C(F)(F)F)cc2Cl)C(=O)C1 [Compound 14, 2-(2-Chloro-4-trifluoromethylbenzoyl)-5,5-dimethyl-cyclohexane-1,3-dione]
IC50 (4-HPPD; [3]): 10.5 ± 3.7 µM | cytotoxicity (in words) [2]: not cytotoxic

CC1(C)CC(=O)C(C(=O)c2ccc(C(F)(F)F)cc2[N+](=O)[O-])C(=O)C1 [Compound 15, 2-(2-Nitro-4-trifluoromethylbenzoyl)-5,5-dimethyl-cyclohexane-1,3-dione]
IC50 (4-HPPD): 0.0616 ± 0.0074 µM | cytotoxicity (in words) ([2]; HFb, LD50 24 h): not cytotoxic | LD50 24 hours ([2]; HFb, MTT, 24 hours treatment): > 0.01 mM
